In brackets after ≈: the same amount, converted by molar mass. Residues, ends and D or L forms follow the SMILES beside them. *: point of attachment. X1 = CC1(C)C(/C=C/C=C/C=C2/N(CCCCS(=O)(=O)O)c3ccc(S(=O)(=O)O)cc3C2(C)C)=[N+](CCCCCC(=O)NCCN2C(=O)CC(*)C2=O)c2ccc(S(=O)(=O)[O-])cc21; X2 = CC1(C)C(=C/C=C/C=C/C2=[N+](CCCCS(=O)(=O)O)c3ccc(S(=O)(=O)[O-])cc3C2(C)C)N(CCCCCC(=O)NCCN2C(=O)CC(*)C2=O)c2ccc(S(=O)(=O)O)cc21; X3 = O=C(O)CN(CCN(CCN(CC(=O)O)CC(=O)O)CC(=O)NCCN1C(=O)CC(*)C1=O)CC(=O)O
How the values were obtained:
[1] = tested on: P0-expressing RT4 D6P2T myelinating Schwannoma cells; assay: Fluorescence confocal microscopy staining of P0-expressing cells; format: cell-based; details: 1 µM, 1 h incubation at 4 °C, N = 3 per tracer
Procedure: Cells were trypsinized and seeded onto 35-mm culture dishes that contained a glass insert (MatTek co) on the day prior to the imaging experiment.
To all samples, 1 mL medium containing 1 µM Cy5-P0_1–25, Cy5-P0_21–45, Cy5-P0_41–65, Cy5-P0_61–85, Cy5-P0_81–105, Cy5-P0_95–120, or Cy5-P0_101–125 was added at one hour prior to imaging (incubation at 4 °C; N = 3 per tracer). Peptide solutions were sonicated for 20 s prior to addition, in order to prevent aggregation of the peptides in solution. Cy5-functionalized derivatives of a P0-specific antibody (Cy5-P0Ab-H60), the extracellular portion of P0 (Cy5-P0ex) as well as a non-P0-specific peptide (Cy5-NP-41) and non-functionalized Cy5-Maleimide were used as controls (1 µM). A lysosomal (lysotracker green; 2 µL/mL, DND-26, Thermo Fisher) and nuclear stain (Hoechst 33342; 1 mg/mL, Thermo Fisher) were added as means to localize the cell nucleus and intracellular lysosomes. […]
(§1) In vitro and ex vivo fluorescence confocal images were acquired using a Leica SP8 WL at sequential settings and 10 × or 63 × magnification. […] For blocking studies, quantification of the fluorescence signal intensity (N = 10 for blocked and non-blocked) in the obtained images was performed using ImageJ according to previously described methods. […]

[2] = molecular target: T1, P0 (RT4 D6P2T Schwannoma cells) (Rattus norvegicus, UniProt P06907); assay: Blocking experiment with P0Ab; format: cell-based; details: 5 µL of 1 mg/mL P0Ab one hour prior to tracer; N = 10; ImageJ quantification; p = 0.001
T1 construct: was performed using P0-expressing RT4 D6P2T cells; host or cells: RT4 D6P2T Schwannoma cells
T1 sequence (P06907 30-248): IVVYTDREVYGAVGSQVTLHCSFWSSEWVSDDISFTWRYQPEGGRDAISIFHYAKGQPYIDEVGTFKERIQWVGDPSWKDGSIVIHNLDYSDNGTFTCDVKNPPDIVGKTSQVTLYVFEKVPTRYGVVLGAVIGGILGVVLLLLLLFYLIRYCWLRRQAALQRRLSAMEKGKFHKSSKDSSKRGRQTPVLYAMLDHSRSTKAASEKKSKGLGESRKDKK
Procedure: To all samples, 1 mL medium containing 1 µM Cy5-P0_1–25, Cy5-P0_21–45, Cy5-P0_41–65, Cy5-P0_61–85, Cy5-P0_81–105, Cy5-P0_95–120, or Cy5-P0_101–125 was added at one hour prior to imaging (incubation at 4 °C; N = 3 per tracer). Peptide solutions were sonicated for 20 s prior to addition, in order to prevent aggregation of the peptides in solution. Cy5-functionalized derivatives of a P0-specific antibody (Cy5-P0Ab-H60), the extracellular portion of P0 (Cy5-P0ex) as well as a non-P0-specific peptide (Cy5-NP-41) and non-functionalized Cy5-Maleimide were used as controls (1 µM). A lysosomal (lysotracker green; 2 µL/mL, DND-26, Thermo Fisher) and nuclear stain (Hoechst 33342; 1 mg/mL, Thermo Fisher) were added as means to localize the cell nucleus and intracellular lysosomes. For blocking studies, 5 µL of a 1 mg/mL solution of non-functionalized P0Ab was added to the cells one hour prior to addition of Cy5-P0_101–125. The synthesis of the control compounds is described in the methods section of Additional file 1: Synthesis of control compounds.
as §1

[3] = Solubility in H2O; format: physicochemical; details: water; saturated solution in H2O at r.t., centrifugation, absorption of supernatant (UV/Vis)
[4] = Lipophilicity in octanol/water (LogPo/w); format: physicochemical; details: read-out: Lipophilicity (o/w), LogPo/w
Procedure: (§2) spectrometer (Pharmacia Biotech).
(§3) Serum protein binding and LogP o/w
(§4) functionalized Cy5 were determined as previously described (7).
(§5) The stability towards glutathione of Cy5-

[5] = Serum protein binding; format: in vitro ADME
Procedure: as §2, §3, §4, §5

[6] = Stability towards glutathione; format: physicochemical
Procedure: as §2, §3, §4, §5

[7] = serum
[8] = Biodistribution in mice; format: in vivo; details: mouse, CNS, total radioactivity; 10 MBq intravenous (tail vein), 4 h p.i.
Procedure: Synthesis and radiolabelling of DTPA-P0_101–125 with ^111In is described in Additional file 1: synthesis of control compounds. For quantitative assessment of the biodistribution of [^111In]In-DTPA-P0_101–125, 10 MBq of the labelled tracer was injected intravenously (tail vein). The percentage of the injected activity per gram of tissue (%IA/g) was assessed at 2 h post-injection as previously described. Excretion was defined as: (MBq present in animal at 24 h post-tracer administration/injected activity) * 100%.

Question: For C[N+]1=C(/C=C/C=C/C=C2/N(CCCCCC(=O)NCCN3C(=O)C=CC3=O)c3ccccc3C2(C)C)C(C)(C)c2ccccc21.[Cl-] [Cy5-Maleimide], which “staining of P0-expressing Schwannoma cells” value [1] is on record?
Answer: no staining was observed

Question: Which “Cy5-related fluorescence remaining after blocking with P0Ab” value [2] does the source give for CC[C@H](C)[C@H](NC(=O)[C@H](CC(=O)O)NC(=O)[C@@H]1CCCN1C(=O)[C@@H]1CCCN1C(=O)[C@H](CC(N)=O)NC(=O)[C@H](CCCCN)NC(C)=O)C(=O)N[C@H](C(=O)NCC(=O)N[C@@H](CCCCN)C(=O)N[C@H](C(=O)N[C@@H](CO)C(=O)N[C@@H](CCC(N)=O)C(=O)N[C@H](C(=O)N[C@H](C(=O)N[C@@H](CC(C)C)C(=O)N[C@@H](Cc1ccc(O)cc1)C(=O)N[C@H](C(=O)N[C@@H](Cc1ccccc1)C(=O)N[C@@H](CCC(=O)O)C(=O)N[C@@H](CCCCN)C(=O)N[C@H](C(=O)N1CCC[C@H]1C(=O)N[C@H](C(=O)N[C@@H](CCCNC(=N)N)C(=O)N[C@@H](Cc1ccc(O)cc1)C(=O)N[C@@H](CSC1CC(=O)N(CCNC(=O)CCCCC[N+]2=C(/C=C/C=C/C=C3/N(CCCCS(=O)(=O)O)c4ccc(S(=O)(=O)O)cc4C3(C)C)C(C)(C)c3cc(S(=O)(=O)[O-])ccc32)C1=O)C(N)=O)[C@@H](C)O)C(C)C)C(C)C)[C@@H](C)O)C(C)C)[C@@H](C)O)C(C)C (stereo partly drawn) [Cy5-P0_101–125] (Ac-KNPPDIVGKTSQVTLYVFEKVPTRYC(X1)-NH2) here?
Answer: 13.5 ± 7.1%

Question: Which solubility thermodynamic [3] does the source give for CC[C@H](C)[C@H](NC(=O)[C@H](CC(=O)O)NC(=O)[C@@H]1CCCN1C(=O)[C@@H]1CCCN1C(=O)[C@H](CC(N)=O)NC(=O)[C@H](CCCCN)NC(C)=O)C(=O)N[C@H](C(=O)NCC(=O)N[C@@H](CCCCN)C(=O)N[C@H](C(=O)N[C@@H](CO)C(=O)N[C@@H](CCC(N)=O)C(=O)N[C@H](C(=O)N[C@H](C(=O)N[C@@H](CC(C)C)C(=O)N[C@@H](Cc1ccc(O)cc1)C(=O)N[C@H](C(=O)N[C@@H](Cc1ccccc1)C(=O)N[C@@H](CCC(=O)O)C(=O)N[C@@H](CCCCN)C(=O)N[C@H](C(=O)N1CCC[C@H]1C(=O)N[C@H](C(=O)N[C@@H](CCCNC(=N)N)C(=O)N[C@@H](Cc1ccc(O)cc1)C(=O)N[C@@H](CSC1CC(=O)N(CCNC(=O)CCCCCN2C(=C/C=C/C=C/C3=[N+](CCCCS(=O)(=O)O)c4ccc(S(=O)(=O)[O-])cc4C3(C)C)C(C)(C)c3cc(S(=O)(=O)O)ccc32)C1=O)C(N)=O)[C@@H](C)O)C(C)C)C(C)C)[C@@H](C)O)C(C)C)[C@@H](C)O)C(C)C (stereo partly drawn) [Cy5-P0_101–125] (Ac-KNPPDIVGKTSQVTLYVFEKVPTRYC(X2)-NH2) here?
Answer: 172 µM (≈ 673 µg/mL)

Question: What about the logP [4] of the same compound?
Answer: -1.39 ± 0.09

Question: What about the Serum protein binding [5] of the same compound?
Answer: 89% ± 2%

Question: What about the “degradation when incubated with glutathione” value ([6]; 6 hr at 37 °C) of the same compound?
Answer: 8%

Question: What about the remaining at 6 h ([6]; buffer or solvent, 37 °C water bath, stock in H2O, HPLC UV/Vis) of the same compound?
Answer: 92%

Question: What about the remaining at 24 h [7] of the same compound?
Answer: 99%

Question: For CC[C@H](C)[C@H](NC(=O)[C@H](CC(=O)O)NC(=O)[C@@H]1CCCN1C(=O)[C@@H]1CCCN1C(=O)[C@H](CC(N)=O)NC(=O)[C@H](CCCCN)NC(C)=O)C(=O)N[C@H](C(=O)NCC(=O)N[C@@H](CCCCN)C(=O)N[C@H](C(=O)N[C@@H](CO)C(=O)N[C@@H](CCC(N)=O)C(=O)N[C@H](C(=O)N[C@H](C(=O)N[C@@H](CC(C)C)C(=O)N[C@@H](Cc1ccc(O)cc1)C(=O)N[C@H](C(=O)N[C@@H](Cc1ccccc1)C(=O)N[C@@H](CCC(=O)O)C(=O)N[C@@H](CCCCN)C(=O)N[C@H](C(=O)N1CCC[C@H]1C(=O)N[C@H](C(=O)N[C@@H](CCCNC(=N)N)C(=O)N[C@@H](Cc1ccc(O)cc1)C(=O)N[C@@H](CSC1CC(=O)N(CCNC(=O)CN(CCN(CC(=O)O)CC(=O)O)CCN(CC(=O)O)CC(=O)O)C1=O)C(N)=O)[C@@H](C)O)C(C)C)C(C)C)[C@@H](C)O)C(C)C)[C@@H](C)O)C(C)C (stereo partly drawn) [[^111In]In-DTPA-P0_101–125, metal not drawn] (Ac-KNPPDIVGKTSQVTLYVFEKVPTRYC(X3)-NH2), which tissue uptake at 4 h [8] is on record?
Answer: 0.12 ± 0.03 %ID/g
